Results taken from US10689363B2 (Merck Patent GmbH, priority 2017, dated 2020).
In brackets after ≈: the same amount, converted by molar mass. Read-outs that look alike come from different tables or passages of the source.

Tests used:
Assay type in all cases: physicochemical
[1] = Water Vapour Sorption isotherm (25° C., DVS-Intrinsic), hygroscopicity acc. to Ph. Eur. 5.11.; details: for water uptake levels: 25° C.
Experimental: (based on multiple measurements on different samples of form A2). […] DSC scan of form A2 was acquired on a Mettler-Toledo DSC 821 with a heating rate of 50 K/min, using nitrogen purge gas at 50 mL/min. TGA scan of form A2 was acquired on a Mettler-Toledo TGA 851 with a heating rate of 5 K/min, using nitrogen purge gas at 50 mL/min. […] Eur. Criteria (section 5.11.). Water Vapour Sorption isotherm was acquired on a DVS-Intrinsic system from SMS.
(based on multiple measurements on different samples of form NF5). […] Eur. Criteria (section 5.11.). […] Water Vapour Sorption isotherm was acquired on a DVS-Intrinsic system from SMS.
(based on multiple measurements on one sample of form NF6). […] Eur. Criteria (section 5.11.). […] Water Vapour Sorption isotherm was acquired on a DVS-Intrinsic system from SMS.
Eur. Criteria (section 5.11.). […] Water Vapour Sorption isotherm was acquired on a DVS-Intrinsic system from SMS.
Other physical properties of form Fumarate-NF1 include the following: ^1H-NMR spectroscopic data reveal a API:Fumarate molar ratio of 1:1. […] DSC scan of form Fumarate-NF1 was acquired on a Mettler-Toledo DSC 821 with a heating rate of 5 K/min, using nitrogen purge gas at 50 mL/min. TGA scan of form Fumarate-NF1 was acquired on a Mettler-Toledo TGA 851 with a heating rate of 5 K/min, using nitrogen purge gas at 50 mL/min. […] Eur. Criteria (section 5.11.). […] Water Vapour Sorption isotherm was acquired on a DVS-Intrinsic system from SMS.
Other physical properties of form Maleate-NF1 include the following: ^1H-NMR spectroscopic data reveal a API:Maleate molar ratio of 1:1. […] DSC scan of form Maleate-NF1 was acquired on a Mettler-Toledo DSC 821 with a heating rate of 5 K/min, using nitrogen purge gas at 50 mL/min. TGA scan of form Maleate-NF1 was acquired on a Mettler-Toledo TGA 851 with a heating rate of 5 K/min, using nitrogen purge gas at 50 mL/min. […] Form Maleate-NF1 can be classified as non-hygroscopic according to Ph. Eur. Criteria (section 5.11.). […] Water Vapour Sorption isotherm was acquired on a DVS-Intrinsic system from SMS.
Other physical properties of form Citrate-NF1 include the following: ^1H-NMR spectroscopic data reveal a API:Citrate molar ratio of 1:1. […] DSC scan of form Citrate-NF1 was acquired on a Mettler-Toledo DSC 821 with a heating rate of 5 K/min, using nitrogen purge gas at 50 mL/min. TGA scan of form Citrate-NF1 was acquired on a Mettler-Toledo TGA 851 with a heating rate of 5 K/min, using nitrogen purge gas at 50 mL/min. […] Eur. Criteria (section 5.11.). […] Water Vapour Sorption isotherm was acquired on a DVS-Intrinsic system from SMS.
(based on multiple measurements on different samples of form A1). […] DSC scan of form A1 was acquired on a Mettler-Toledo DSC 821 with a heating rate of 50 K/min, using nitrogen purge gas at 50 mL/min. TGA scan of form A1 was acquired on a Mettler-Toledo TGA 851 with a heating rate of 5 K/min, using nitrogen purge gas at 50 mL/min. […] Eur. Criteria (section 5.11.). […] Water Vapour Sorption isotherm was acquired on a DVS-Intrinsic system from SMS. […] Dissolution level of form A1 in Fasted-State Simulated Intestinal Fluid [FaSSIF, pH 6.5] at 37° C. was determined to be approx. 36 μg/mL (after 2 h), and dissolution level of form A1 in Fed-State Simulated Intestinal Fluid [FeSSIF, pH 5.0] at 37° C. was determined to be approx. 214 μg/mL (after 2 h), respectively (see example 11).
All forms were characterized according to standard methods which are found in e.g. Rolf Hilfiker, ‘Polymorphism in the Pharmaceutical Industry’. Wiley-VCH. Weinheim 2006 (Chapter 6: X-Ray Diffraction. Chapter 6: Vibrational Spectroscopy. Chapter 3: Thermal Analysis, Chapter 9: Water Vapour Sorption, and references therein); and H. G. Brittain, ‘Polymorphism in Pharmaceutical Solids. Vol. 95. Marcel Dekker Inc., New York 1999 (Chapter 6 and references therein).

[2] = Mini-dissolution in FaSSIF / FeSSIF medium at 37° C.; details: for Dissolution levels in FaSSIF pH 6.5: FaSSIF pH 6.5, 37° C.; for Dissolution levels in FeSSIF pH 5.0: FeSSIF pH 5.0, 37° C.
Experimental: All dispersions were agitated at 37° C. for up to 2 hours. At defined time intervals (30 min. 60 min, 120 min), sample aliquots of homogeneous dispersions were withdrawn by a syringe, and filtrated via syringe filter adapters (PTFE, 0.45 μm).

[3] = Thermodynamic solubility (24 h, 37° C.) in FaSSIF medium or USP Phosphate buffer; details: for solubility thermodynamic at 24 h: 37 °C, thermodynamic from solid
[4] = 120 min (2 h), listed as form Malonate-NF1
[5] = 120 min (2 h), listed as form Oxalate-NF1
[6] = 120 min (2 h), listed as form Succinate-NF1

C=CC(=O)N1CCC(CNc2ncnc(N)c2-c2ccc(Oc3ccccc3)cc2)CC1.O=C(O)CCC(=O)O [Citrate-NF1, 1-(4-{[6-Amino-5-(4-phenoxy-phenyl)-pyrimidin-4-ylamino]-methyl}-piperidin-1-yl)-propenone]
hygroscopicity classification according to Ph. Eur. Criteria (section 5.11.) [1]: Slightly hygroscopic
hygroscopicity classification according to Ph. Eur. Criteria (section 5.11.) ([1]; listed as form Citrate-NF1): slightly hygroscopic
water uptake levels ([1]; relative humidity range 0-80% rh, listed as form Citrate-NF1): < 2.0 wt %

C=CC(=O)N1CCC(CNc2ncnc(N)c2-c2ccc(Oc3ccccc3)cc2)CC1.O=C(O)CCC(=O)O [Fumarate-NF1, 1-(4-{[6-Amino-5-(4-phenoxy-phenyl)-pyrimidin-4-ylamino]-methyl}-piperidin-1-yl)-propenone]
hygroscopicity classification according to Ph. Eur. Criteria (section 5.11.) [1]: Slightly hygroscopic
hygroscopicity classification according to Ph. Eur. Criteria (section 5.11.) ([1]; listed as form Fumarate-NF1): slightly hygroscopic
water uptake levels ([1]; relative humidity range 0-80% rh, listed as form Fumarate-NF1): < 0.5 wt %

C=CC(=O)N1CCC(CNc2ncnc(N)c2-c2ccc(Oc3ccccc3)cc2)CC1.O=C(O)CCC(=O)O [Maleate-NF1, 1-(4-{[6-Amino-5-(4-phenoxy-phenyl)-pyrimidin-4-ylamino]-methyl}-piperidin-1-yl)-propenone]
hygroscopicity classification according to Ph. Eur. Criteria (section 5.11.) [1]: Non-hygroscopic
hygroscopicity classification according to Ph. Eur. Criteria (section 5.11.) ([1]; listed as form Maleate-NF1): non-hygroscopic
water uptake levels ([1]; relative humidity range 0-80% rh, listed as form Maleate-NF1): < 0.5 wt %

C=CC(=O)N1CCC(CNc2ncnc(N)c2-c2ccc(Oc3ccccc3)cc2)CC1.O=C(O)CCC(=O)O [Malonate-NF1, 1-(4-{[6-Amino-5-(4-phenoxy-phenyl)-pyrimidin-4-ylamino]-methyl}-piperidin-1-yl)-propenone]
Dissolution levels in FaSSIF pH 6.5 ([2]; 30 min): 47 μg/mL
Dissolution levels in FaSSIF pH 6.5 ([2]; 60 min): 53 μg/mL
Dissolution levels in FaSSIF pH 6.5 ([2]; 120 min (2 h)): 75 μg/mL
Dissolution levels in FaSSIF pH 6.5 [2, 4]: approx. 75 μg/mL
dissolution levels (2 h), factor higher vs form A1 ([2]; FaSSIF): ~2
Dissolution levels in FeSSIF pH 5.0 ([2]; 30 min): 651 μg/mL
Dissolution levels in FeSSIF pH 5.0 ([2]; 60 min): 694 μg/mL
Dissolution levels in FeSSIF pH 5.0 ([2]; 120 min (2 h)): 740 μg/mL
Dissolution levels in FeSSIF pH 5.0 [2, 4]: approx. 740 μg/mL
dissolution levels (2 h), factor higher vs form A1 ([2]; FeSSIF): ~3.5
hygroscopicity classification according to Ph. Eur. Criteria (section 5.11.) [1]: Slightly hygroscopic
hygroscopicity classification according to Ph. Eur. Criteria (section 5.11.) ([1]; listed as form Malonate-NF1): slightly hygroscopic
water uptake levels ([1]; relative humidity range 0-80% rh, listed as form Malonate-NF1): < 0.5 wt %

C=CC(=O)N1CCC(CNc2ncnc(N)c2-c2ccc(Oc3ccccc3)cc2)CC1.O=C(O)CCC(=O)O [Oxalate-NF1, 1-(4-{[6-Amino-5-(4-phenoxy-phenyl)-pyrimidin-4-ylamino]-methyl}-piperidin-1-yl)-propenone]
Dissolution levels in FaSSIF pH 6.5 ([2]; 30 min): 50 μg/mL
Dissolution levels in FaSSIF pH 6.5 ([2]; 60 min): 54 μg/mL
Dissolution levels in FaSSIF pH 6.5 ([2]; 120 min (2 h)): 58 μg/mL
Dissolution levels in FaSSIF pH 6.5 [2, 5]: approx. 58 μg/mL
dissolution levels (2 h), factor higher vs form A1 ([2]; FaSSIF): ~1.5
Dissolution levels in FeSSIF pH 5.0 ([2]; 30 min): 600 μg/mL
Dissolution levels in FeSSIF pH 5.0 ([2]; 60 min): 700 μg/mL
Dissolution levels in FeSSIF pH 5.0 ([2]; 120 min (2 h)): 740 μg/mL
Dissolution levels in FeSSIF pH 5.0 [2, 5]: approx. 740 μg/mL
dissolution levels (2 h), factor higher vs form A1 ([2]; FeSSIF): ~3.5
hygroscopicity classification according to Ph. Eur. Criteria (section 5.11.) [1]: Slightly hygroscopic
hygroscopicity classification according to Ph. Eur. Criteria (section 5.11.) ([1]; listed as form Oxalate-NF1): slightly hygroscopic
water uptake levels ([1]; relative humidity range 0-80% rh, listed as form Oxalate-NF1): < 1.0 wt %

C=CC(=O)N1CCC(CNc2ncnc(N)c2-c2ccc(Oc3ccccc3)cc2)CC1.O=C(O)CCC(=O)O [Succinate-NF1, 1-(4-{[6-Amino-5-(4-phenoxy-phenyl)-pyrimidin-4-ylamino]-methyl}-piperidin-1-yl)-propenone]
Dissolution levels in FaSSIF pH 6.5 ([2]; 30 min): 92 μg/mL
Dissolution levels in FaSSIF pH 6.5 ([2]; 60 min): 95 μg/mL
Dissolution levels in FaSSIF pH 6.5 ([2]; 120 min (2 h)): 100 μg/mL
Dissolution levels in FaSSIF pH 6.5 [2, 6]: approx. 100 μg/mL
dissolution levels (2 h), factor higher vs form A1 ([2]; FaSSIF): ~3
Dissolution levels in FeSSIF pH 5.0 ([2]; 30 min): 625 μg/mL
Dissolution levels in FeSSIF pH 5.0 ([2]; 60 min): 708 μg/mL
Dissolution levels in FeSSIF pH 5.0 ([2]; 120 min (2 h)): 743 μg/mL
Dissolution levels in FeSSIF pH 5.0 [2, 6]: approx. 743 μg/mL
dissolution levels (2 h), factor higher vs form A1 ([2]; FeSSIF): ~3.5
hygroscopicity classification according to Ph. Eur. Criteria (section 5.11.) [1]: Slightly hygroscopic
hygroscopicity classification according to Ph. Eur. Criteria (section 5.11.) ([1]; listed as form Succinate-NF1): slightly hygroscopic
water uptake levels ([1]; relative humidity range 0-80% rh, listed as form Succinate-NF1): ≤ 2.0 wt %

C=CC(=O)N1CCC(CNc2ncnc(N)c2-c2ccc(Oc3ccccc3)cc2)CC1 [form A2, 1-(4-{[6-Amino-5-(4-phenoxy-phenyl)-pyrimidin-4-ylamino]-methyl}-piperidin-1-yl)-propenone]
thermodynamic solubility compared to form A1 (in words) [3]: higher
thermodynamic solubility, factor higher vs form A1 ([3]; FaSSIF): ~1.5
solubility thermodynamic at 24 h ([3]; FaSSIF medium, pH 6.5, fassif, FaSSIF pH 6.5, 37° C., read-out: Thermodynamic solubility FaSSIF pH 6.5): ~33 µg/mL (≈ 76.8 µM)
thermodynamic solubility, factor higher vs form A1 ([3]; PBS buffer pH 7.4): ~2
solubility thermodynamic at 24 h ([3]; USP phosphate buffer, pH 7.4, aqueous buffer, USP Phosphate buffer pH 7.4, 37° C., read-out: Thermodynamic solubility PBS buffer 7.4): ~27 µg/mL (≈ 62.9 µM)
hygroscopicity classification according to Ph. Eur. Criteria (section 5.11.) [1]: slightly hygroscopic
hygroscopicity classification according to Ph. Eur. Criteria (section 5.11.) ([1]; listed as A2): Slightly hygroscopic
water uptake levels ([1]; relative humidity range 0-98% rh): ≤ 1 wt %
water uptake levels ([1]; relative humidity range 90-98% rh): ≤ 2 wt %
